Patent publication US8008009B2, “Method for ProNGF assay for in vitro diagnosis of cancer in particular breast, thyroid or lung cancer and therapeutic use of ProNGF” (Biomerieux, priority 2006, dated 2011)

How the values were obtained:
Assay type in all cases: cell-based, human
MCF-7 cells [1] = assay: Boyden chamber (Transwell) migration test; settings: 200 ng/mL in lower chamber, starving medium, 24 h, compared with starving medium alone
Experimental: (§1) A “starving” medium was used, “starving” denoting a medium identical to the complete medium but without serum and supplemented with 2 μg/mL of fibronectin and 30 μg/mL of transferrin. For the various biological activity measurements, the various test molecules (ProNGF, NGF and galardin) are added to this starving medium. During the treatments, the media are renewed every 24 hours.
(§2) The migration and invasion tests are carried out as previously described by Bracke et al. (1999, J Natl Cancer Inst, 91: 354-359). The protocols for using Boyden chambers and for invasion in collagen gel are described below.
12-well plates containing Transwells® with a pore diameter of 12 μm are equilibrated with starving medium and placed at 37° C. under 5% CO2 for 2 hours. The medium is then drawn off and replaced, in the lower chamber, by starving medium with the various test molecules, whereas, in the upper chamber, 40 000 cells are seeded in starving medium alone. […] Each condition is carried out in duplicate; a minimum of 40 fields is counted for each condition. […]
The effects of ProNGF on the migration of mammary epithelial cells were comprehended by means of tests in Boyden chambers (Transwell®). Each condition was carried out in duplicate and a minimum of 40 fields was counted. […] The cells having crossed the Transwell® were then counted. *p<0.05, comparison with the starving medium alone condition.

MCF-7 cells [2] = assay: Collagen type I gel invasion test; settings: 200 ng/mL, starving medium, 24 h
Experimental: as §1, §2
The collagen type I gel is prepared in the following way: 2.1 mL of collagen Type I, 0.8 mL of EMEM (10×), 4.6 mL of PBS, 0.8 mL of NaHCO3 at 0.25 M and 0.15 mL of 1 M NaOH. 1.25 mL are deposited in the wells of a 6-well plate. Once the gel has solidified, 100 000 cells are seeded with starving medium and the various test molecules for 24 hours. The cells are subsequently counted and the invasion index is determined (number of deep cells related to the number of cells at the surface). Each condition is carried out in triplicate and a minimum of 45 fields is counted per condition.
The invasive capacity of the ProNGF-stimulated MCF-7 cells was tested in collagen type I gel. Each condition is carried out in triplicate and a minimum of 45 fields is counted per condition. […]

ProNGF = assay: Anti-ProNGF Western blotting after siRNA transfection, densitometry; settings: MCF-7 cells, 3 μg siRNA
Experimental: The MCF-7 cells are passaged 3-4 days before transfection, so as to reach 50% confluence at the time of the experiment. Two million cells are taken up in 100 μl of Nucleofector Kit V solution and 3 μg of siRNA are added. The transfection program used on the Nucleofector is E-14. Anti-ProNGF Western blotting is carried out on the lysates recovered after 24 hours or after 48 hours, according to the protocol described in point 2.1. The relative amount of ProNGF detected by blotting is evaluated with the QuantityOne software (Bio-Rad), related to the equal loading (actin) and presented in the form of a histogram where 100% is assigned to the siGFP control condition.
The MCF-7 cells were transfected with 3 μg interfering RNA (siRNA) directed against GFP (siGFP) or against ProNGF (siProNGF). After 24 to 48 h of culture, the cells were lysed and ProNGF Western blotting was carried out. The relative amount of ProNGF detected by blotting was evaluated with the QuantityOne software (Bio-Rad) related to the actin equal loading and presented in the form of a histogram where 100% is assigned to the siGFP control condition (FIG. 10). […] Densitometric analysis made it possible to evaluate this decrease at 59% after 24 h of transfection.

MDA-MB-231 cells = assay: Cell proliferation (cell count) after siRNA transfection; settings: 3 μg siRNA, EMEM culture medium, counted at 24, 48 and 96 h; Mock and siGFP controls double between 24 and 48 h
Experimental: The interfering RNA (siRNA) transfection experiments were carried out with the Cell Line Nucleofector kit from Amaxa and the corresponding electroporation apparatus. This system makes it possible to obtain a high efficiency of gene transfer to the nucleus (nucleofection).
The MDA-MB-231 cells are passaged 2 days before the transfection, so as to reach 80% confluence at the time of the experiment. The cells to be transfected are trypsinized and then counted. The cell pellet (1 million cells) is taken up in 100 μl of Nucleofector Kit V solution and 3 μg of siRNA are added. This cell suspension is transferred into an electroporation cuvette, placed in the Amaxa apparatus and electroporated according to the X-13 program. The cells are subsequently put back in culture in a well of a 6-well plate for 24-72 h. The cell proliferation is followed over time and the cells are counted at regular time intervals. Anti-Sortilin Western blotting is carried out on the lysates recovered at various times, according to the protocol described in the previous paragraph, “Expression of Sortilin”.
MDA-MB-231 cells maintained in the EMEM culture medium were transfected either with culture medium alone (Mock), or with an interfering RNA directed against the GFP protein (siGFP) or with an interfering RNA directed against Sortilin (siSORT).

Sortilin = assay: Anti-Sortilin Western blotting after siRNA transfection; settings: MDA-MB-231 cells transfected with siRNA
Experimental: For the Western blotting, the membranes are saturated with 4% bovine serum albumin in a solution of TBS (Tris Buffered Saline) 0.1% Tween 20 (17.54 g NaCl, 2.42 g Tris, 2 mL tween 20, QS 2 L, pH adjusted to 7.4) at ambient temperature for 2 hours. After saturation, the membranes are incubated overnight at 4° C. with the various primary antibodies: anti-Sortilin (BD612101 from BD Biosciences) at 1:2000, anti-Actin (A-2066 from Sigma) at 1:5000 in the saturation solution. After rinsing with TBS 0.1% Tween 20, the membranes are incubated for 1 hour at ambient temperature with an anti-rabbit secondary antibody (A-1949 from Sigma, France) coupled to horseradish peroxidase, at 1:20000 in the saturation solution. After rinsing, visualization is carried out with the ECL system (Pierce Interchim, France) according to the recommended data for use.
The MDA-MB-231 cells are passaged 2 days before the transfection, so as to reach 80% confluence at the time of the experiment. The cells to be transfected are trypsinized and then counted. The cell pellet (1 million cells) is taken up in 100 μl of Nucleofector Kit V solution and 3 μg of siRNA are added. This cell suspension is transferred into an electroporation cuvette, placed in the Amaxa apparatus and electroporated according to the X-13 program. […] The cell proliferation is followed over time and the cells are counted at regular time intervals. […]

Question: For “NGF: recombinant nerve growth factor obtained from R&D systems”, which cell migration (MCF-7 cells [1]) is on record?
Answer: increase their ability to migrate, in a similar manner to NGF

Question: With “ProNGF: human recombinant nerve growth factor precursor sold by SCIL proteins” as the substance, how does the “invasion (invasion index)” value (MCF-7 cells [2]) read?
Answer: stimulates MCF-7 invasion

Question: What about the cell migration (MCF-7 cells [1]) of the same substance?
Answer: increase their ability to migrate

Question: How did the “expression of the ProNGF protein (photographs of the blots)” value (ProNGF; 24 to 48 h of culture) turn out when “siProNGF: interfering RNA directed against ProNGF; double-stranded RNA of SEQ ID No.5 and SEQ ID No.6 (chain 1 CAGUGUAUUCAAACAGUAUNN; chain 2 GUACUGUUUGAAUACACUGNN; listed as RNA, chemistry not given here)” was run?
Answer: decreases the expression of the ProNGF protein

Question: And the “decrease in expression of ProNGF (densitometric analysis)” value (ProNGF; after 24 h of transfection, 100% assigned to siGFP control, related to actin)?
Answer: 59%

Question: For “siSORT: interfering RNA which decreases the expression of Sortilin; double-stranded RNA of SEQ ID No.3 and SEQ ID No.4 (chain 1 GGUGGUGUUAACAGCAGAGNN; chain 2 CUCUGCUGUUAACACCACCNN; listed as RNA, chemistry not given here)”, which “number of MDA-MB-231 cells in culture over time” value (MDA-MB-231 cells) is on record?
Answer: does not increase over time

Question: And the “level of expression of the Sortilin protein” value (Sortilin)?
Answer: decreased the level of expression of the Sortilin protein
